“Also recorded” adds a separate entry of the source. Read-outs that look alike come from different tables or passages of the source. One block for each compound: values may come before it. Ends that are not written are not given here.
How the values were obtained:
animal AD models = conditions: ref [29]; cited from earlier work
[1] = cited from earlier work
[2] = Dynamic light scattering, quaternary structure of GLP-1RAs; format: physicochemical; conditions: DLS, 25 °C, pH 7.4
Procedure: DLS measurements were carried out using a Zetasizer Nano ZS system (Malvern Instruments Ltd., Malvern, UK). The backscattered light from a 4 mW He-Ne laser at 632.8 nm was collected at an angle of 173°. […] The acquisition time for a single autocorrelation function was 100 s. The resulting autocorrelation functions were averaged values from three measurements. The volume-weighted size distributions were calculated using the following parameters for the buffer: the refractive index of 1.334 was measured using the RL3 refractometer (PZO, Warszawa, Poland); the viscosity value η = 0.95 mPa∙s was measured using a micro-rheology method with a water suspension of standard latex nanoparticles (NIST 3060A, Thermo Fisher Scientific, Waltham, MA, USA). The molecular mass and its standard deviation corresponding to the volume-weighted hydrodynamic radius MWRh distribution was calculated in approximation of a globular protein according to the equations from ref. [86]. The degree of multimerization was calculated as the MWRh/MWm ratio, where MWm is the molecular mass of the monomeric GLP-1RAs calculated from their molecular structure.

Aβ40 fibrillation = test: ThT fluorescence assay of Aβ40 fibrillation; format: biochemical, Human; conditions: 20 µM Aβ40, 10 µM GLP-1RA, 30 °C, pH 7.4
Procedure: The influence of GLP-1RAs on Aβ40 fibril formation at 30 °C was studied using the ThT fluorescence assay at ThT and GLP-1RA concentrations of 10 μM for both components (Figure 4).
Standard deviations of the fluorescence signals are indicated. Excitation wavelength of 440 nm.
The Aβ40 sample was prepared as described in ref. [82] with some modifications (~5 mM NaOH at pH 11.8, 0.5 mg/mL). […] The control curves (without Aβ40; Figure S1) were subtracted from the corresponding kinetic curves of Aβ40 samples with/without GLP-1RAs. Each measurement was performed in 2–10 repetitions. The mean fluorescence signal values for each experimental sample were normalized to the average fluorescence signal corresponding to the saturation phase of Aβ40 fibril formation without additives. Data are presented as mean ± standard deviation.

SH-SY5Y cells [3] = test: MTT assay, Aβ40 cytotoxicity toward SH-SY5Y cells; conditions: 48 h
Procedure: (§1) GLP-1RAs were premixed with Aβ40/Aβ42 at an equimolar ratio in serum-free medium and added to the SH-SY5Y cells cultured in the same medium to a final concentration of both components of 10 µM. Staining with MTT was performed after incubation of the cells for 48 h.
(§2) Mean values and standard deviations are indicated.
(§3) Human neuroblastoma SH-SY5Y cells were cultured in DMEM-F12 medium supplemented with 1% penicillin-streptomycin-glutamine and 10% fetal bovine serum at 37 °C for 24 h in a humidified atmosphere with 5% CO2. Upon reaching 80% confluence, the cells were harvested and seeded into 96-well plates at a density of 15 × 10^5 cells per well in serum-free DMEM/F12 + PSG medium.
(§4) The Aβ40/Aβ42 samples were dissolved in fresh 1% NH4OH at a concentration of 0.5 mg/mL, followed by freeze-drying.
(§5) Freshly prepared Aβ40/Aβ42, GLP-1RAs, or their mixtures were added (100 µL per well) to the cultures 24 h after seeding to a final concentration of both components of 10 µM. The final volume of medium in the well was 200 µL. The MTT assay, designed to assess cellular metabolic activity, was performed after incubation of the cells for 48 h. MTT (0.005 mg/mL) was added and the cells were incubated for 3 h, followed by solubilization of the cells using DMSO. […] The resulting values were normalized relative to the control group of the untreated cells (100%). […]

SH-SY5Y cells [4] = test: MTT assay, Aβ (Aβ40/Aβ42) cytotoxicity toward SH-SY5Y cells; conditions: 10 µM Aβ40/Aβ42 and 10 µM GLP-1RA, 48 h, summary table
Procedure: as §1, §2, §3, §4, §5

serum albumin (HSA) = conditions: attached fatty acid chain; ref [44],[45]; cited from earlier work
SH-SY5Y cells [5] = test: MTT assay, Aβ42 cytotoxicity toward SH-SY5Y cells; conditions: 48 h
Procedure: as §1, §2, §3, §4
Freshly prepared Aβ40/Aβ42, GLP-1RAs, or their mixtures were added (100 µL per well) to the cultures 24 h after seeding to a final concentration of both components of 10 µM. The final volume of medium in the well was 200 µL. The MTT assay, designed to assess cellular metabolic activity, was performed after incubation of the cells for 48 h. MTT (0.005 mg/mL) was added and the cells were incubated for 3 h, followed by solubilization of the cells using DMSO. […] The resulting values were normalized relative to the control group of the untreated cells (100%). Data are presented as mean ± standard deviation (n = 5–10).

[6] = b29: plasma concentrations; ref [61],[62]; cited from earlier work
APP/PS1 AD mice = conditions: ref [47],[48],[49]; cited from earlier work
AD patients = conditions: cited from earlier work; for cognition and memory: patients with mild cognitive impairment and AD, ref [16]
Excerpt: Worldwide, approximately 416 million individuals are affected by AD dementia, prodromal AD, or preclinical AD, accounting for 22% of the population aged 50 years and older.

cultured neuronal cells = conditions: ref [30], cited from earlier work
[7] = system: Aβ levels in the mouse brain; conditions: in vivo; ref [30]; cited from earlier work
Excerpt: The N-terminally truncated forms of GLP-1, GLP-1(7-36)/(7-37), secreted from intestinal L cells, control meal-related glycemic excursions by augmentation of insulin expression and secretion and inhibition of glucagon release (reviewed in [21]). Some population of neurons in the nucleus tractus solitarii of the brainstem can also express GLP-1 [22, 23].

Aβ40 fibrils = test: Negative-staining TEM of Aβ40 fibrils; format: biochemical, Human
Procedure: The scale bars represent 1 μm.
A copper grid (300-mesh) coated with a 0.2% formvar film was placed on a 10 µL drop of the sample. […] Excess stain was removed using filter paper, and the grid was rinsed in deionized water for 1 min. The samples were analyzed using a JEM-1400Plus (HC) transmission electron microscope (JEOL, Ltd., Tokyo, Japan) at an accelerating voltage of 80 keV.

- oligomerization, in words [2]: strong oligomerization
- molecular mass from Rh (MWRh) ([2]; 5–83 µM, globular protein approximation): >7 × 10^5 kDa
Compound: CC[C@H](C)[C@H](NC(=O)[C@H](Cc1ccccc1)NC(=O)[C@H](CCC(=O)O)NC(=O)[C@H](CCCCN)NC(=O)[C@H](C)NC(=O)[C@H](C)NC(=O)[C@H](CCC(N)=O)NC(=O)CNC(=O)[C@H](CCC(=O)O)NC(=O)[C@H](CC(C)C)NC(=O)[C@H](Cc1ccc(O)cc1)NC(=O)[C@H](CO)NC(=O)[C@H](CO)NC(=O)[C@@H](NC(=O)[C@H](CC(=O)O)NC(=O)[C@H](CO)NC(=O)[C@@H](NC(=O)[C@H](Cc1ccccc1)NC(=O)[C@@H](NC(=O)CNC(=O)[C@H](CCC(=O)O)NC(=O)[C@H](C)NC(=O)[C@@H](N)Cc1c[nH]cn1)[C@@H](C)O)[C@@H](C)O)C(C)C)C(=O)N[C@@H](C)C(=O)N[C@@H](Cc1c[nH]c2ccccc12)C(=O)N[C@@H](CC(C)C)C(=O)N[C@H](C(=O)N[C@@H](CCCCN)C(=O)NCC(=O)N[C@@H](CCCNC(=N)N)C(=O)NCC(=O)O)C(C)C [GLP-1(7-37)]
- AD Animal Data: learning and memory (animal AD models): Positive effects on learning and memory [29]
- ability to cross the BBB ([1]; in vivo): possessed
- Effect on Aβ40 Fibrillation (Figure 4 and Figure 5) (Aβ40 fibrillation; ThT assay and TEM, summary table): Inhibition
- effect on Aβ40 fibrillation (Aβ40 fibrillation; ThT assay, 10 μM ThT, 25 mM Tris-HCl, 140 mM NaCl, ex 440/em 485 nm, 2–10 repetitions): inhibit Aβ40 fibrillation; also recorded: suppressed Aβ40 fibrillation; also recorded: suppression of Aβ40 fibrillation

Compound: CCCCCCCCCCCCCCCC(=O)N[C@@H](CCC(=O)NCCCC[C@H](NC(=O)[C@H](C)NC(=O)[C@H](C)NC(=O)[C@H](CCC(N)=O)NC(=O)CNC(=O)[C@H](CCC(=O)O)NC(=O)[C@H](CC(C)C)NC(=O)[C@H](Cc1ccc(O)cc1)NC(=O)[C@H](CO)NC(=O)[C@H](CO)NC(=O)[C@@H](NC(=O)[C@H](CC(=O)O)NC(=O)[C@H](CO)NC(=O)[C@@H](NC(=O)[C@H](Cc1ccccc1)NC(=O)[C@@H](NC(=O)CNC(=O)[C@H](CCC(=O)O)NC(=O)[C@H](C)NC(=O)[C@@H](N)Cc1cnc[nH]1)[C@@H](C)O)[C@@H](C)O)C(C)C)C(=O)N[C@@H](CCC(=O)O)C(=O)N[C@@H](Cc1ccccc1)C(=O)N[C@H](C(=O)N[C@@H](C)C(=O)N[C@@H](Cc1c[nH]c2ccccc12)C(=O)N[C@@H](CC(C)C)C(=O)N[C@H](C(=O)N[C@@H](CCCNC(=N)N)C(=O)NCC(=O)N[C@@H](CCCNC(=N)N)C(=O)NCC(=O)O)C(C)C)[C@@H](C)CC)C(=O)O [Lira, liraglutide]
- effect on Aβ40 cytotoxicity (SH-SY5Y cells [3]; 10 µM Aβ40 + 10 µM GLP-1RA, serum-free medium): abolished this effect
- Effect on Aβ Cytotoxicity to SH-SY5Y Cells (Figure 7) (SH-SY5Y cells [4]): Protection
- binding to serum albumin / clearance (serum albumin (HSA)): favors binding to serum albumin, thereby slowing the clearance of Lira
- ability to cross the BBB ([1]; conclusions, ref Table 4): possessed
- effect on Aβ42 cytotoxicity (SH-SY5Y cells [5]; 10 µM Aβ42 + 10 µM GLP-1RA, serum-free medium): abolished this effect; also recorded: most pronounced increase in the viability of SH-SY5Y cells
- peak plasma concentrations [6]: 20 to 120 nM
- crosses the BBB (APP/PS1 AD mice): crosses the BBB

Compound: CN(C)C(=N)N=C(N)N [metformin]
- cognition and memory (AD patients): can improve cognition and memory

Compound: GLP-1(7-36): N-terminally truncated form of glucagon-like peptide 1, residues 7-36 (HAEGTFTSDVSSYLEGQAAKEFIAWLVKGR; ends and bridges not checked; UniProt P01275 98-127, looked up)
- protection against Aβ/iron-induced death (cultured neuronal cells; cultured hippocampal neurons): protects cultured hippocampal neurons against Aβ/iron-induced death
- levels of APP (cultured neuronal cells; cultured neuronal cells): decrease levels of APP in cultured neuronal cells
- Aβ levels in the mouse brain [7]: reduce Aβ levels in the mouse brain in vivo

Compound: amyloid-β peptide, residues 1-40 [Aβ40]
- decrease in cell survival (SH-SY5Y cells [3]; 10 µM Aβ40 alone, n = 5–10): 22%
- fibril length (Aβ40 fibrils; printed as "up to", Aβ40 with 10 μM GLP-1RA): up to 2 µm

Compound: amyloid-β peptide, residues 1-42 [Aβ42]
- decrease in cell survival (SH-SY5Y cells [5]; 10 µM Aβ42 alone, n = 5–10): 37%

Compound: donanemab
- side effects (AD patients; human, in vivo): brain edema and microhemorrhages

Compound: glucagon-like peptide 1 [GLP-1]
- appearance of Aβ40 fibrils by TEM (Aβ40 fibrils; after ThT assay, 20 µM Aβ40 with 10 μM GLP-1RA, 1% uranyl acetate): sporadic small fibril clusters were still observed

Compound: insulin [intranasal insulin]
- cognition and memory (AD patients): can improve cognition and memory

Source: PMC12071944, “Interaction Between Glucagon-like Peptide 1 and Its Analogs with Amyloid-β Peptide Affects Its Fibrillation and Cytotoxicity” (International Journal of Molecular Sciences, 2025)
